{"source": "patent US10533006B2", "about": "“Nitrogen-containing heterocycle and carbocycle derivatives having TrkA inhibitory activity” (Shionogi & Co., Ltd., priority 2016, dated 2020)"}
{"biological_target": "T1, human TrkA (Homo sapiens, UniProt P04629)", "T1 construct": "purchased Lifetechnologies PV3144", "T1 sequence (P04629 33-796)": "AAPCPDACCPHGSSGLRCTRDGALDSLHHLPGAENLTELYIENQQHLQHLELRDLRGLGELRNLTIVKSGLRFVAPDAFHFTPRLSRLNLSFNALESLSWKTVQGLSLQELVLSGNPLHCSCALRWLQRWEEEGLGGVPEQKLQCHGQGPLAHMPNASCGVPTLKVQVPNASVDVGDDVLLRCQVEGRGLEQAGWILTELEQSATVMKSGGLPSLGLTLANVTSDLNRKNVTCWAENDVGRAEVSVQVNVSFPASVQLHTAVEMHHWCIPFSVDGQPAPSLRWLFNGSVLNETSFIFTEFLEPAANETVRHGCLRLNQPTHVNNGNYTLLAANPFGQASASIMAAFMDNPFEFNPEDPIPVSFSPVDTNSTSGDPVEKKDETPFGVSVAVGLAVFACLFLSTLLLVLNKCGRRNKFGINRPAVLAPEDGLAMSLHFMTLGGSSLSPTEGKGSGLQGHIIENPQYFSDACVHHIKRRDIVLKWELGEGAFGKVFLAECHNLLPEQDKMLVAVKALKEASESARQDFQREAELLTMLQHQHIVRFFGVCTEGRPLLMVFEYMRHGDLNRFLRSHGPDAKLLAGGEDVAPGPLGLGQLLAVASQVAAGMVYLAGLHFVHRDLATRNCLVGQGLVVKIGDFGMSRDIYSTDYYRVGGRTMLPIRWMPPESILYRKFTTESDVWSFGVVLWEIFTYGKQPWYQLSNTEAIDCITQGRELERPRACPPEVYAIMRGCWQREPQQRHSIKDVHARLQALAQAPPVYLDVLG", "assay": "Human TrkA inhibition assay", "format": "biochemical", "settings": "human TrkA phosphorylation inhibition, ATP 500 μmol/L; read-out: IC50_nM", "description": "(§1) Seven point five L per well of human TrkA (PV3144, Lifetechnologies, final concentration: 1 nmol/L) suspended in the assay buffer (100 mmol/L 4-(2-hydroxyethyl)-1-piperazineethanesulfonic acid (HEPES), 10 mmol/L magnesium chloride, 0.003 vol % Brij-35, 0.004 vol % Tween20 and 1 mmol/L dithiothreitol (DTT)) was applied in a 384 well plate and the plate was pre-incubated for 15 min at room temperature with 0.4 μL of each compound (final concentration: 200 μmol/L-0.1 nM) dissolved in DMSO. Then, fluorescent substrate (FL-peptide 27, 760424, PerkinElmer, final concentration: 1.5 μmol/L) and ATP (final concentration 500 μmol/L) dissolved in the assay buffer was added in each well. After the incubation of 120 min at 37° C., fifteen μL of termination buffer (100 mmol/L HEPES, 40 mmol/L ethylenediaminetetraacetic acid (EDTA), 10 mmol/L magnesium chloride, 0.003 vol % Brij-35, 0.004 vol % Tween20, 1 mmol/L DTT and 0.16 vol % Coating Reagent 3) was added in each well to stop the enzyme reaction. Fluorescent intensities (FI) of phosphorylated and non-phosphorylated fluorescent substrates were measured by LabChip EZReader II (Caliper LifeSciences, Inc.), and conversion ratio (CR) was calculated by the following formula-1. The CR in the well applied with DMSO alone was used as a negative control and the CR in the well without applying TrkA was used as a positive control. The inhibitory effect of each compound on TrkA phosphorylation was calculated by the following formula-2. CR (%)=(FI of phosphorylated substrate/(FI of phosphorylated substrate+FI of non-phosphorylated substrate))×100 (Formula-1) Phosphorylation inhibition (%)=(1−(CR with compound treatment−CR of positive control)/(CR of negative control−CR of positive control))×100 (Formula-2)\n(§2) IC50 values (nmol/L) were determined by the logistic regression using the inhibition data in 10 points of 3-fold dilution series at a compound concentration range of 2 μmol/L to 0.1 nmol/L, or 15 points of 3-fold dilution series at the range of 200 μmol/L to 0.04 nmol/L.", "units": {"IC50": "nM"}}
{"smiles": "COCCN1C[C@@H](NC(=O)Nc2c(C)c(-c3ccnc(C(=O)NCCO)c3)nn2-c2ccccc2)[C@H](c2ccccc2)C1", "note": "(racemic) [Compound I-49]", "IC50": "< 100"}
{"smiles": "COCCN1C[C@@H](NC(=O)Nc2c(C)c(-c3cnc4c(cnn4C)c3)nn2-c2ccccc2)[C@H](c2ccccc2)C1", "note": "(racemic) [Compound I-17]", "IC50": "< 100"}
{"smiles": "COCCN1C[C@@H](NC(=O)Nc2c(C)c(-c3cnn(C)c3)nn2-c2ccccc2)[C@H](c2ccnc(Cl)c2)C1", "note": "(racemic) [Compound I-1]", "IC50": "< 100"}
{"smiles": "COCCN1C[C@@H](NC(=O)Nc2c(C)c(-c3cnn(C)c3)nn2-c2ccccc2)[C@H](c2cnc(Cl)c(F)c2)C1", "note": "(racemic) [Compound I-16]", "IC50": "< 100"}
{"smiles": "COCCN1C[C@@H](NC(=O)Nc2c(C)c(-c3cc(C(=O)NC(C)(C)CO)c(=O)n(C)c3)nn2-c2ccccc2)[C@H](c2ccccc2)C1", "note": "(racemic) [Compound I-115]", "IC50": "< 100"}
{"smiles": "COCCN1C[C@H](NC(=O)Nc2c(C)c(-c3cnc4c(cnn4C)c3)nn2-c2ccccc2)[C@@H](c2ccnc(F)c2)C1", "note": "[Compound I-160]", "IC50": "> 1000"}
{"smiles": "COCCN1C[C@@H](NC(=O)Nc2c(C)c(-c3cnc(OCF)c(C(=O)NC4CCOCC4)c3)nn2-c2ccccc2)[C@H](c2ccccc2)C1", "note": "(racemic) [Compound I-143]", "IC50": "< 100"}
{"smiles": "COCC[C@@H]1C[C@@H](NC(=O)Nc2c(C)c(-c3cc(C(=O)NO)c(=O)n(C)c3)nn2-c2ccccc2)[C@H](c2ccccc2)C1", "note": "[Compound I-120]", "IC50": "< 100"}
{"smiles": "COCCN1C[C@@H](NC(=O)Nc2c(C)c(-c3cnc4ccnn4c3)nn2-c2ccccc2)[C@H](c2ccccc2)C1", "note": "(racemic) [Compound I-40]", "IC50": "< 100"}
{"smiles": "COCCN1C[C@@H](NC(=O)Nc2c(C)c(-c3cnc(OC)c(C(=O)N[C@@H]4CCCOC4)c3)nn2-c2ccccc2)[C@H](c2ccccc2)C1", "note": "[Compound I-78]", "IC50": "< 100"}
{"smiles": "COCCN1C[C@@H](NC(=O)Nc2c(C)c(-c3ccc(C(N)=O)nc3)nn2-c2ccccc2)[C@H](c2ccccc2)C1", "note": "(racemic) [Compound I-42]", "IC50": "< 100"}
{"smiles": "COCCN1C[C@@H](NC(=O)Nc2c(C)c(-c3cnc4c(c3)c(N=S(C)(C)=O)nn4C)nn2-c2ccccc2)[C@H](c2ccc(F)c(F)c2)C1", "note": "[Compound I-163]", "IC50": "< 100"}
{"smiles": "CNC(=O)c1cc(-c2nn(-c3ccccc3)c(NC(=O)N[C@@H]3CN(CCOC)C[C@H]3c3ccccc3)c2C)cnc1OCC(F)F", "note": "(racemic) [Compound I-125]", "IC50": "< 100"}
{"smiles": "CCOc1ncc(-c2nn(-c3ccccc3)c(NC(=O)N[C@@H]3CN(CCOC)C[C@H]3c3ccccc3)c2C)cc1C(=O)NC", "note": "(racemic) [Compound I-122]", "IC50": "< 100"}
{"smiles": "COCCN1C[C@@H](NC(=O)Nc2c(C)c(-c3cc(C(=O)N[C@@H]4CCCOC4)c(=O)n(C)c3)nn2-c2ccccc2)[C@H](c2ccccc2)C1", "note": "(racemic) [Compound I-109]", "IC50": "< 100"}
{"smiles": "CNC(=O)c1cc(-c2nn(-c3ccccc3)c(NC(=O)N[C@@H]3C[C@@H](CCOC)C[C@H]3c3ccccc3)c2C)cn(C)c1=O", "note": "[Compound I-117]", "IC50": "< 100"}
{"smiles": "COCCN1C[C@@H](NC(=O)Nc2c(C)c(-c3cnc(OC)c(C(=O)NC4CC(F)(F)C4)c3)nn2-c2ccccc2)[C@H](c2ccccc2)C1", "note": "(racemic) [Compound I-81]", "IC50": "< 100"}
{"smiles": "COCCN1C[C@@H](NC(=O)Nc2c(C)c(-c3cc(C(=O)N[C@@H]4CCOC4)c(=O)n(C)c3)nn2-c2ccccc2)[C@H](c2ccccc2)C1", "note": "(racemic) [Compound I-112]", "IC50": "< 100"}
{"smiles": "COCCN1C[C@@H](NC(=O)Nc2c(C)c(-c3cnc(C)nc3)nn2-c2ccccc2)[C@H](c2cnc(F)c(F)c2)C1", "note": "(racemic) [Compound I-60]", "IC50": "< 100"}
{"smiles": "COCCN1C[C@@H](NC(=O)Nc2c(C)c(-c3cnc4nccn4c3)nn2-c2ccccc2)[C@H](c2ccccc2)C1", "note": "(racemic) [Compound I-30]", "IC50": "< 100"}
{"smiles": "COCCN1C[C@@H](NC(=O)Nc2c(C)c(-c3cncc(N=S(C)(C)=O)c3)nn2-c2ccccc2)[C@H](c2ccccc2)C1", "note": "(racemic) [Compound I-106]", "IC50": "< 100"}
{"smiles": "CCNC(=O)c1cc(-c2nn(-c3ccccc3)c(NC(=O)N[C@@H]3CN(CCOC)C[C@H]3c3ccccc3)c2C)cnc1OC(F)F", "note": "(racemic) [Compound I-134]", "IC50": "< 100"}
{"smiles": "COCC[C@@H]1C[C@@H](NC(=O)Nc2c(C)c(-c3ccc(OCc4ccccc4)nc3)nn2-c2ccccc2)[C@H](c2ccccc2)C1", "note": "[Compound I-22]", "IC50": "< 100"}
{"smiles": "COCCN1C[C@@H](NC(=O)Nc2c(C)c(-c3cnn(C)c3)nn2-c2ccccc2)[C@H](c2cc(F)ncc2F)C1", "note": "(racemic) [Compound I-98]", "IC50": "< 100"}
{"smiles": "CCNC(=O)c1cc(-c2nn(-c3ccccc3)c(NC(=O)N[C@@H]3CN(CCOC)C[C@H]3c3ccccc3)c2C)cnc1OCF", "note": "(racemic) [Compound I-132]", "IC50": "< 100"}
{"smiles": "COCCN1C[C@@H](NC(=O)Nc2c(C)c(-c3cc(C(=O)NC4CC(F)(F)C4)c(=O)n(C)c3)nn2-c2ccccc2)[C@H](c2ccccc2)C1", "note": "(racemic) [Compound I-113]", "IC50": "< 100"}
{"smiles": "COCCN1C[C@@H](NC(=O)Nc2c(C)c(-c3cnn(C)c3)nn2-c2ccccc2)[C@H](c2cc(F)nc(F)c2)C1", "note": "(racemic) [Compound I-7]", "IC50": "< 100"}
{"smiles": "COCCN1C[C@@H](NC(=O)Nc2c(C)c(-c3cnc(OC)c(C(=O)NC4CCS(=O)(=O)CC4)c3)nn2-c2ccccc2)[C@H](c2ccccc2)C1", "note": "(racemic) [Compound I-79]", "IC50": "< 100"}
{"smiles": "COCCN1C[C@@H](NC(=O)Nc2c(C)c(-c3cnc4c(c3)c(C)nn4C)nn2-c2ccccc2)[C@H](c2ccccc2)C1", "note": "(racemic) [Compound I-89]", "IC50": "< 100"}
{"smiles": "CNC(=O)c1ncc(-c2nn(-c3ccccc3)c(NC(=O)N[C@@H]3CN(CCOC)C[C@H]3c3ccccc3)c2C)cc1C", "note": "(racemic) [Compound I-61]", "IC50": "< 100"}
{"smiles": "CNC(=O)c1cc(-c2nn(-c3ccccc3)c(NC(=O)N[C@@H]3CN(CCOC)C[C@H]3c3ccccc3)c2C)cn(C)c1=O", "note": "(racemic) [Compound I-52]", "IC50": "< 100"}
{"smiles": "CCN1CCC(NC(=O)c2ccc(-c3nn(-c4ccccc4)c(NC(=O)N[C@@H]4C[C@@H](CCOC)N[C@H]4c4ccc(F)c(F)c4)c3C)cc2)CC1", "note": "[Compound I-15]", "IC50": "< 100"}
{"smiles": "COCCN1C[C@@H](NC(=O)Nc2c(C)c(-c3cnc(OC)c(C(=O)N[C@H]4CCOC4)c3)nn2-c2ccccc2)[C@H](c2ccccc2)C1", "note": "[Compound I-80]", "IC50": "< 100"}
{"smiles": "COCCN1C[C@@H](NC(=O)Nc2c(C)c(-c3ccnc(C(=O)NO)c3)nn2-c2ccccc2)[C@H](c2ccccc2)C1", "note": "(racemic) [Compound I-63]", "IC50": "< 100"}
{"smiles": "COCCN1C[C@@H](NC(=O)Nc2c(C)c(-c3cnn(C)c3)nn2-c2ccccc2)[C@H](c2ccnc(F)c2F)C1", "note": "(racemic) [Compound I-162]", "IC50": "< 100"}
{"smiles": "COCCN1C[C@@H](NC(=O)Nc2c(C)c(-c3cnc4nc(C)nn4c3)nn2-c2ccccc2)[C@H](c2ccccc2)C1", "note": "(racemic) [Compound I-32]", "IC50": "< 100"}
{"smiles": "COCC[C@@H]1C[C@@H](NC(=O)Nc2c(C)c(-c3cc(C(=O)NOC)c(=O)n(C)c3)nn2-c2ccccc2)[C@H](c2ccccc2)C1", "note": "[Compound I-153]", "IC50": "< 100"}
{"smiles": "COCCN1C[C@@H](NC(=O)Nc2c(C)c(-c3ccnc(C(=O)N[C@@H]4CCOC4)c3)nn2-c2ccccc2)[C@H](c2ccccc2)C1", "note": "[Compound I-86]", "IC50": "< 100"}
{"smiles": "CCNC(=O)c1cc(-c2nn(-c3ccccc3)c(NC(=O)N[C@@H]3CN(CCOC)C[C@H]3c3ccccc3)c2C)ccn1", "note": "(racemic) [Compound I-46]", "IC50": "< 100"}
{"smiles": "COCC[C@@H]1C[C@@H](NC(=O)Nc2c(C)c(-c3ccc4c(cnn4C)c3)nn2-c2ccccc2)[C@H](c2ccc(F)c(F)c2)C1", "note": "[Compound I-13]", "IC50": "< 100"}
{"smiles": "COCCN1C[C@@H](NC(=O)Nc2c(C)c(-c3cnc4c(c3)nc(CO)n4C)nn2-c2ccccc2)[C@H](c2ccccc2)C1", "note": "(racemic) [Compound I-97]", "IC50": "< 100"}
{"smiles": "CCNC(=O)c1cc(-c2nn(-c3ccccc3)c(NC(=O)N[C@@H]3CN(CCOC)C[C@H]3c3ccccc3)c2C)cnc1OCC(F)F", "note": "(racemic) [Compound I-131]", "IC50": "< 100"}
{"smiles": "COCCN1C[C@@H](NC(=O)Nc2c(C)c(-c3cnc4c(c3)ncn4C)nn2-c2ccccc2)[C@H](c2ccccc2)C1", "note": "(racemic) [Compound I-51]", "IC50": "< 100"}
{"biological_target": "T1, human TrkA", "assay": "Human TrkA inhibition assay", "format": "biochemical", "settings": "human TrkA phosphorylation inhibition, ATP 500 μmol/L; read-out: IC50 value", "description": "as §1, §2", "units": {"IC50": "nM"}}
{"smiles": "COCCN1C[C@@H](NC(=O)Nc2cc(-c3cnc4c(cnn4C)c3)nn2C)[C@H](c2ccc(F)c(F)c2)C1", "note": "[Compound I-167]", "IC50": 28}
{"smiles": "COCCN1C[C@@H](NC(=O)Nc2c(C)c(-c3cnc(OC)c(C(=O)NC4CCOCC4)c3)nn2-c2ccccc2)[C@H](c2ccccc2)C1", "note": "(racemic) [Compound I-57]", "IC50": 1}
{"smiles": "COCC[C@@H]1C[C@@H](NC(=O)Nc2c(C)c(-c3cnc4c(cnn4C)c3)nn2-c2ccccc2)[C@H](c2ccccc2)C1", "note": "[Compound I-102]", "IC50": 0.66}
